# Literature values in PMC8198792, “Prediction of Anticancer Peptides with High Efficacy and Low Toxicity by Hybrid Model Based on 3D Structure of Peptides” (International Journal of Molecular Sciences, 2021).
# Like-named read-outs stand apart in the source and are kept apart here.
# Tested on: cancer cell lines
# Parameters: method as in 6 sources, ref CancerPPD [45] and SATPdb ||| ref CancerPPD/SATPdb ||| ref CancerPPD, SATPdb, Swissprot (PDB) ||| ref CancerPPD/SATPdb/Swissprot(PDB) ||| ref CancerPPD / SATPdb ||| ...
# Details: cited from earlier work
# Source text: Supplement ijms-22-05630-s001.zip/ACPs(seguence).xlsx, sheet "D1" | column: Activity || Supplement ijms-22-05630-s001.zip/ACPs(seguence).xlsx, sheet "D2" | column: Activity || Supplement ijms-22-05630-s001.zip/ACPs(seguence).xlsx, sheet "D3" | column: Activity || (+ 2 further places)
# [1] = ACPs dataset D1, label 1 = ACP, 0 = non-ACP (non-anticancer AMPs from SATPdb), ref CancerPPD/SATPdb
# [2] = ACPs dataset D4 (sheet "D4"), label 1 = ACP (CancerPPD ID), 0 = non-ACP (non-anticancer AMP, SATPdb ID), ref CancerPPD [45] and SATPdb
# [3] = ACPs dataset D1, 1 = ACP (positive), 0 = non-ACP (negative), label taken from databases, ref CancerPPD [45] and SATPdb
# [4] = ACPs dataset D4 (sheet "D4"), label 1 = ACP, experimentally validated ACPs, ref CancerPPD [45] and SATPdb
# [5] = ACPs dataset D5 (sheet "D5"), label 1 = ACP (positive set), sequences with CancerPPD/SATPdb ID, ref CancerPPD, SATPdb
# [6] = ACPs dataset sheet D2, 1 = ACP (CancerPPD/SATPdb ID), 0 = non-ACP (Swissprot/PDB ID), ref CancerPPD, SATPdb, Swissprot (PDB)
# [7] = ACPs dataset D3 (supplement sheet "D3"), 1 = ACP, 0 = non-ACP, ref CancerPPD [45] and SATPdb
# [8] = ACPs dataset D5 (sheet "D5"), label 1 = ACP (positive set), 0 = non-ACP (negative set), ref CancerPPD [45] and SATPdb
# [9] = ACPs dataset D3 (sheet "D3"), label 1 = ACP, 0 = non-ACP, ref CancerPPD/SATPdb
# [10] = ACPs dataset D4 (sheet "D4"), label 1 = ACP, 0 = non-ACP, ref CancerPPD / SATPdb
# [11] = ACPs dataset D5, sheet "D5", label 1 = ACP, 0 = non-ACP, ref CancerPPD [45] and SATPdb
Substance,Activity [2],Activity [3],Activity [4],Activity [5],Activity [6],other results
MESQSNAVQLMLGFGTFVLMLLGLVVELIKNSNKK [satpdb12625],0,,,,,Activity [1]: 0
INGSLDKRVQDCYHG [satpdb28376],,1,1,1,1,
KWKSFLKTFKSLKKTVLHTlLKAISS [compound 3757],1,,,,,Activity [7]: 1; Activity [8]: 1
GIPCGESCVWIPCISAAIGCSCKNKVCYRN [satpdb12462],0,,,,,Activity [1]: 0
NGREACLDPEAPMVQKIVQKMLKG [satpdb14027],,1,1,1,1,
KILRGVAKKIMRTFLRRISKDILTGKK [compound 3325],1,,,,,Activity [7]: 1; Activity [8]: 1
EYHLMNGANGYLTRVNGKTVYRVTKDPVSAVFGVISNCWGSAGAGFGPQH [satpdb10230],0,0,,,,
ILRWPWWPWRRK [compound 1880],1,,,,,Activity [7]: 1; Activity [8]: 1
FLKWLFKWAKK [compound 1716],,,1,1,,Activity [7]: 1
KWKSFLKTFKSLKKTVLHTLLkAISS [compound 3767],1,,,,,Activity [7]: 1; Activity [8]: 1
SPWSQCTASCGGGVQTR [satpdb21725],,1,1,1,1,
ALALLOHALHOLALLAOHLAHOLALA [satpdb14515],,,,,,Activity [9]: 0; Activity [10]: 0; Activity [11]: 0
KTCENLADTFRGPCFATSNC [compound 4449],,1,1,1,1,
"MPQLVPFYFMNQLTYGFLLMITLLILFSQFFLPMILRLYVSRLFISKL [6B2Z electron microscopy 3.60,A/L,1-48]",,,,,,"Activity (ACPs dataset D2 (supplement ACPs(seguence).xlsx, sheet D2), dataset label 1/0 (ACP / non-ACP), entries identified by Swissprot(PDB ID), ref CancerPPD/SATPdb/Swissprot(PDB)): 0; Activity [8]: 0"
FLGALFHALSKLL [compound 3266],,1,1,1,1,
ESVFSKIGNAVGPAAYWILKGLGNMSDVNQADRINRKKH [satpdb11882],0,,,,,Activity [1]: 0
KLALKLALKAlkAALKLA [satpdb10294],0,0,,,,
GLPRKILAAIAKKK [satpdb14133],,,,,,Activity [9]: 0; Activity [10]: 0; Activity [11]: 0
GASCGETCFTGICFTAGCSCNPWPTCTRN [compound 4369],,1,1,1,1,
ITPATPFTPAIITEITAAVIA [satpdb10693],0,0,,,,
KWkSFLkTFkSLKkTVLHTLLkAISS [compound 3764],1,,,,,Activity [7]: 1; Activity [8]: 1
GIGKLFLHAAKKFAKAFVAEKMNS [satpdb10222],0,0,,,,
FAKKLAKKLKKLAKKLAKLAKKL [compound 1914],,,1,1,,Activity [7]: 1
FKCRRWQWRMKKLGAPSITCVR [compound 1352],,1,1,1,1,
RRWCFRVCYRGRFCYRKCR [satpdb14798],,,,,,Activity [9]: 0; Activity [10]: 0; Activity [11]: 0
ILPILSLIGGLLGK [compound 4439],,1,1,1,1,
FLPVIAGVAANFLPKLFCAISKKC [compound 4361],,1,1,1,1,
GLPVCGETCFGGTCNTPGCTCDPWPVCTRN [compound 4427],,1,1,1,1,
